The values that follow come from patent US6664271B1, “Immunopotentiator agents” (Eli Lilly and Company, priority 1999, dated 2003).

This data set relates to chicken leukocytes. In words: cells. Type of data set: cell-based. The settings on record: for minimal effective concentration: Gallus gallus, Leukocyte, read-out: MSC (Minimum Stimulatory Concentration). On the procedure:
Various compounds of Formula I were evaluated for in vitro T-lymphocyte blastogenic activity with chicken leukocytes according to the steps described in the following procedure:
(a) Exsanguination step. The leukocytes were obtained from 3-6 week old Hubbard/Peterson broiler chickens. Initially, the chickens were rendered unconscious in a CO2 chamber. The chickens were then exsanguinated via cardiac puncture. In the exsanguination procedure, a syringe was connected to a needle, and the needle was inserted into the area at the base of the neck under the “V” formed by the breast and sternum. After the needle was properly inserted, continuous vacuum was applied to a syringe (connected to the needle) by pulling back on the plunger. It is important to promptly carry out this withdrawal action, because there is only a 10-15 seconds time period after the blood has starting flowing into the syringe before the blood coagulates, and becomes unusable. As soon as the syringe is full (or prior to complete filling if too much time has elapsed such that the blood begins to coagulate), the whole uncoagulated blood is transferred to a tube having the anticoagulant EDTA therein. The tube is then rotated to mix the whole blood and the EDTA. Alternatively, the whole blood can be withdrawn directly into a vacuum container already having EDTA therein, rather than into a syringe.
(b) Leukocyte isolation step. Numerous methods for isolating leukocytes from (uncoagulated) whole blood are known in the art. In a preferred method, the sterile whole blood was combined with methylcellulose (1.5:1). Any blood containing clots was discarded. The mixture was centrifuged at 30×g for ten minutes (300 rpm on Beckman GS-6R centrifuge). The top layer (leukocytes in supernatant) was decanted into a sterile 50 ml conical tube, while taking care to prevent contamination of the sample by red blood cells. The decanted layer was then centrifuged at 200×g for ten minutes (1500 rpm on the Beckman GS-6R centrifuge). The supernatant liquid was discarded, and the resulting cell “pellet” was retained.
The cells were then washed in a solution containing 10 ml PBS (phosphate buffered saline) and Gentamycin (gentamicin sulfate) at a concentration of 50 μg/ml. This solution was centrifuged at 100×g (1000 rpm on the Beckman centrifuge) for five minutes, and the supernatant liquid was discarded. The washing step (including the centrifuging at 100×g) was repeated to ensure complete removal of the methylcellulose. The use of media such as DMEM ([…]) was avoided in the washing steps, since such media may cause agglutination of the white blood cells. Finally, the cells were then suspended in an appropriate media, such as RPMI 1640 tissue cell culture medium, supplemented with phenol red, NaHCO3, and L-Glutamide. Supplemented RPMI 1640 is available from Sigma-Aldrich Chemical Co.
(c) Cell counting and cell viability step. The cells were counted and checked for viability using the Trypan Blue method of exclusion. 0.1 ml of the cell suspension was placed in a 4-5 ml small culture tube along with 0.7 ml HBSS (Hank's Buffered Saline Solution), available from Sigma-Aldrich, and 0.2 ml of a 0.4% solution of aqueous Trypan Blue stain, available from GIBCO BRL, of Grand Island, N.Y. The components were mixed thoroughly but gently, and allowed to sit for 5 minutes (no longer than 15 minutes). The components should not be exposed to the stain for extended periods of time, because such extended exposure may permit viable cells, as well as non-viable cells, to take up dye.
A cover slip was placed on a Bright Line hemacytometer, available from Howser Scientific, and 10 μl of the mixture from the tube was transferred to each chamber. Non-viable cells appear blue under a microscope. The viable cells in one of the 16-square corners of the hemacytometer were then counted. […]

Setting [1] is: chicken leukocytes, read at 72 hours.
[2] abbreviates: Hubbard/Peterson broiler, chicken, 72 h.

For the compound `CCC(=O)OC1CCCN(C(=O)Cc2cccs2)C1` (centres unmarked) [Example 46, 1-(2-Thiopheneacetyl)-3-(O-propionyl)piperidine], under setting [1], the “MSC (Minimum Stimulatory Concentration)” value turned out to be 1 µg/mL and the “MTC (Maximum Tolerable Concentration prior to causing cytotoxicity)” value (from here on “MTC”) turned out to be 10 µg/mL.
As for `CCOC(=O)[C@H]1CCCN(C(=O)NCc2ccccc2)C1` [Example 48, (S)-Ethyl 1-(N-Benzylurea)-3-piperidinecarboxylate], the “MSC (Minimum Stimulatory Concentration)” value under setting [1] was found to be 10 µg/mL.
For the compound `CCOC(=O)[C@H]1CCCN(C(=O)NC)C1` [Example 49, (S)-Ethyl 1-(N-Methylurea)-3-piperidinecarboxylate], under setting [1], the “MSC (Minimum Stimulatory Concentration)” value stood at 1 µg/mL and the “MTC” value turned out to be 10 µg/mL.
With `O=C(O)[C@H]1CCCN(C(=O)c2ccccc2)C1` [Example 50, (S)-1-Benzoyl-3-piperidinecarboxylic Acid], under setting [1], the minimal effective concentration is 1 µg/mL. Further, the “MTC” value under setting [2] came out at 10 µg/mL.
In the same order, the values of `COC(=O)[C@H]1CCCN(C(=O)c2ccccc2)C1` [Example 52, (S)-Methyl 1-Benzoyl-3-piperidinecarboxylate] are 0.1 µg/mL and 10 µg/mL.
The corresponding values for `CCCOC(=O)[C@H]1CCCN(C(=O)c2ccccc2)C1` [Example 53, (S)-Propyl 1-Benzoyl-3-piperidinecarboxylate] are 1 µg/mL and 10 µg/mL.
In the same order, the values of `CCOC(=O)[C@H]1CCCN(CCCc2cccs2)C1` [Example 54, (S)-Ethyl 1-(2-Thienylpropyl)-3-piperidinecarboxylate] are 1 µg/mL and 10 µg/mL.
Regarding `CCOC(=O)C1CC(C)CN(C(=O)Cc2cccs2)C1` (centres unmarked) [Example 57, Ethyl 1-(2-Thiopheneacetyl)-5-methyl-3-piperidinecarboxylate], under setting [1], the minimal effective concentration was 10 µg/mL. Further, under setting [2], the “MTC” value came out at 10 µg/mL.
Turning to `O=C(Cc1cccs1)N1CCC[C@H](CO)C1` [Example 59], under setting [1], the “MSC (Minimum Stimulatory Concentration)” value amounted to 10 µg/mL and the “MTC” value came to 100 µg/mL.
Consider `CCOC(=O)C1CN(C(=O)Cc2cccs2)CCC1C` (centres unmarked) [Example 62, Ethyl 1-(2-Thiopheneacetyl)4-methyl-3-piperidinecarboxylate], for which the minimal effective concentration under setting [1] worked out at 1 µg/mL. Moreover, the “MTC” value under setting [2] stood at 10 µg/mL.
In the same order, the values of `O=C[C@H]1CCCN(C(=O)Cc2cccs2)C1` [Example 63, (S)-1-(2-Thiopheneacetyl)-3-piperidinecarboxaldehyde] are 1 µg/mL and 10 µg/mL.
For the compound `N#C[C@H]1CCCN(C(=O)Cc2cccs2)C1` [Example 64, (S)-1-(2-Thiopheneacetyl)-3-piperidinonitrile], under setting [1], the minimal effective concentration was 1 µg/mL. Moreover, under setting [2], the “MTC” value is 10 µg/mL.
Regarding `CN(C)C(=O)C1CCC[N@+](C)(Cc2ccccc2)C1.[I-]` (stereo partly drawn) [Example 71, (S)-N,N-Dimethyl 1-Benzyl-3-piperidinecarboxamide 1-methiodide], under setting [1], the “MSC (Minimum Stimulatory Concentration)” value amounted to 0.1 µg/mL.
The same measure, in the same setting: under “(S)-Ethyl 1-(2-Thiazyl)-3-piperidinecarboxylate 1-methiodide [Example 73]” stands 1 µg/mL.
With “Ethyl 1-(2-Bromobenzoyl)-2-acetylpiperidinecarboxylate [Example 45]”, under setting [1], the “MSC (Minimum Stimulatory Concentration)” value turned out to be 1 µg/mL.
